Experiment: Lipophilicity determined as logarithm of the partition coefficient in the alkane/water system
Details: octanol/water

SMILES | Log PNalk
Oc1cccc(F)c1 | -0.83
CCCCNc1ccc(C(=O)OCCN(C)C)cc1 [TETRACAINE] | 1.75
Oc1ccccc1Br | 1.04
Nc1ccccc1 [ANILINE] | 0.03
c1ccc(-c2ccccc2)cc1 [BIPHENYL] | 4
N#Cc1ccccc1O | -1.85
O=[N+]([O-])c1cccc(O)c1 [3-NITRO-PHENOL] | -1.23
[O-][n+]1ccc2ccccc2c1 | -2.51
[O-][n+]1cccc2ccccc21 | -2.05
C[C@]12CC[C@@H]3c4ccc(O)cc4CC[C@H]3[C@@H]1CC[C@@H]2O [ESTRADIOL] | -0.2
CCCCCCCO [1-HEPTANOL] | 1.01
CCCCCC(=O)O [HEXANOATE] | 0.24
CN[C@@H](C)[C@H](O)c1ccccc1 [EPHEDRINE] | -0.77
CC(C)Cc1ccc(C(C)C(=O)O)cc1 (stereo not given) [IBUPROFEN] | 2.08
COc1ccc(CCN2CCC(Nc3nc4ccccc4n3Cc3ccc(F)cc3)CC2)cc1 [ASTEMIZOLE] | 0.95
C[C@]12CC[C@H]3[C@@H](CCC4=CC(=O)CC[C@@]43C)[C@@H]1CC[C@@H]2O [TESTOSTERONE] | 0.41
Nc1ccc(/N=N/c2ccccc2)c(N)n1 [PHENAZOPYRIDINE] | 0.42
O=[N+]([O-])c1ccccc1O [NITROPHENOLATE] | 1.04
O=S(=O)(c1ccccc1)c1ccccc1 [(PHENYLSULFONYL)BENZENE] | 1.45
c1ccc2[nH]ccc2c1 [INDOLE] | 0.68
CCCCN [BUTYLAMINE] | -0.62
NC1=NCC2c3ccccc3Cc3ccccc3N12 (stereo not given) [EPINASTINE] | 1.76
O=C(O)c1cccc([N+](=O)[O-])c1 | -1.22
CC(=O)CC(c1ccccc1)c1c(O)c2ccccc2oc1=O (stereo not given) [WARFARIN] | 0.05
C[C@]12CC[C@@H]3c4ccc(O)cc4CC[C@H]3[C@@H]1CCC2=O [ESTRONE] | 0.48

SMILES | Log PNalk
COc1ccccc1 [ANISOLE] | 2.15
[O-][n+]1ccc(-c2ccccc2)cc1 | -2.36
CCCC(C)=O | 0.43
CN[C@@H](C)Cc1ccccc1 [METHAMPHETAMINE] | 1.24
CCCC(C)C1(CC)C(=O)NC(=S)NC1=O (stereo not given) [THIOPENTAL] | 0.52
c1ccc2cnccc2c1 [ISOQUINOLINE] | 1.11
COC(C)=O [ACETIC ACID METHYL ESTER] | -0.26
CC(C(=O)O)c1ccc(-c2ccccc2)c(F)c1 (stereo not given) [FLURBIPROFEN] | 1.49
CC(C)=O [ACETONE] | -0.91
N#Cc1ccccc1 [BENZONITRILE] | 0.9
NCc1ccccc1 [BENZYLAMINE] | -0.21
N=C(N)N/N=C/c1c(Cl)cccc1Cl [GUANABENZ] | -1.6
Cc1ccc(C(C)C)c(O)c1 [THYMOL] | 1.4
CC(C)(C)NC[C@H](O)COc1nsnc1N1CCOCC1 [TIMOLOL] | -1
c1ccc2ncccc2c1 [QUINOLINE] | 1.26
O=C(O)c1ccccc1O [SALICYLIC ACID] | -0.92
O=C([O-])Cc1ccccc1Nc1c(Cl)cccc1Cl.[Na+] [DICLOFENAC SODIUM] | 1.72
C[C@]12CC[C@@H]3c4ccc(O)cc4CC[C@H]3[C@@H]1C[C@@H](O)[C@@H]2O [ESTRIOL] | -0.64
CCCCC(C)=O | 0.87
CCCOC(C)=O [ACETIC ACID PROPYL ESTER] | 0.9
Cc1cccc(O)c1 [METACRESOL] | -0.35
CCCCC [PENTANE] | 4.18
O=C1NC(=O)C(c2ccccc2)(c2ccccc2)N1 [PHENYTOIN] | -0.3
COc1ccc(C(=O)O)cc1 [p-ANISIC ACID] | -0.15
Cc1ccc(O)cc1 [p-CRESOL] | -0.19
